Where only a bound is given, the exact number is not on record here.

In data set [1] the test system is HDAC (HeLa nuclear extract). The data set is described as follows: HDAC fluorimetric assay (inhibition of HDAC enzymatic activity). The data set is classed as biochemical. To be noted: HDAC fluorimetric assay kit. The protocol:
(c) An In Vitro Assay which Determines the Ability of a Test Compound to Inhibit HDAC Enzymatic Activity.
HDAC inhibitors were screened using an HDAC fluorimetric assay kit (AK-500, Biomol, Plymouth Meeting, Pa.). Test compounds were dissolved in dimethylsulphoxide (DMSO) to give a 20 mM working stock concentration. Fluorescence was measured on a WALLAC Victor 2 plate reader and reported as relative fluorescence units (RFU). Data were plotted using GraphPad Prism (v4.0a) and IC50's calculated using a sigmoidal dose response curve fitting algorithm. Each assay was setup as follows: Defrosted all kit components and kept on ice until use. Diluted HeLa nuclear extract 1:29 in Assay Buffer (50 mM Tris/Cl, pH 8.0, 137 mM NaCl, 2.7 mM KCl, 1 mM MgCl2). Prepared dilutions of Trichostatin A (TSA, positive control) and tested compounds in assay buffer (5× of final concentration). Diluted Fluor de Lys™ Substrate in assay buffer to 100 uM (50 fold=2× final). Diluted Fluor de Lys™ developer concentrate 20-fold (e.g. 50 μl plus 950 μl Assay Buffer) in cold assay buffer. Second, diluted the 0.2 mM Trichostatin A 100-fold in the 1× Developer (e.g. 10 μl in 1 ml; final Trichostatin A concentration in the 1× Developer=2 μM; final concentration after addition to HDAC/Substrate reaction=1 μM). Added Assay buffer, diluted trichostatin A or test inhibitor to appropriate wells of the microtiter plate. Added diluted HeLa extract or other HDAC sample to all wells except for negative controls. Allowed diluted Fluor de Lys™ Substrate and the samples in the microtiter plate to equilibrate to assay temperature (e.g. 25 or 37° C. Initiated HDAC reactions by adding diluted substrate (25 μl) to each well and mixing thoroughly. Allowed HDAC reactions to proceed for 1 hour and then stopped them by addition of Fluor de Lys™ Developer (50 μl). Incubated plate at room temperature (25° C.) for 10-15 min. Read samples in a microtiter-plate reading fluorimeter capable of excitation at a wavelength in the range 350-380 nm and detection of emitted light in the range 440-460 nm.

A further data set deals with T1, HSP90 (Homo sapiens, UniProt P07900).
T1 construct: purchased Assay Design SPP-776F
The data set is described as follows: HSP90 assay (chaperone luciferase refolding / competition binding fluorescence polarization). As to conditions: Table B does not say which of the two described. The protocol:
(a) An In Vitro Assay which Determines the Ability of a Test Compound to Inhibit Hsp90 Chaperone Activity.
The Hsp90 chaperone assay was performed to measure the ability of HSP90 protein to refold the heat-denatured luciferase protein. HSP90 was first incubated with different concentrations of test compounds in denaturation buffer (25 mM Tris, pH7.5, 8 mM MgSO4, 0.01% bovine gamma globulin and 10% glycerol) at room temperature for 30 min. Luciferase protein was added to denaturation mix and incubated at 50° C. for 8 min. The final concentration of HSP90 and luciferase in denaturation mixture were 0.375 μM and 0.125 μM respectively. A 5 μl sample of the denatured mix was diluted into 25 μl of renaturation buffer (25 mM Tris, pH7.5, 8 mM MgSO4, 0.01% bovine gamma globulin and 10% glycerol, 0.5 mM ATP, 2 mM DTT, 5 mM KCl, 0.3 μM HSP70 and 0.15 μM HSP40). The renaturation reaction was incubated at room temperature for 150 min, followed by dilution of 10 μl of the renatured sample into 90 μl of luciferin reagent (Luclite, PerkinElmer Life Science). The mixture was incubated at dark for 5 min before reading the luminescence signal on a TopCount plate reader (PerkinElmer Life Science).
(b) HSP90 Competition Binding (Fluorescence Polarization) Assay.
A fluorescein isothiocyanate (FITC) labeled GM was purchase from InvivoGen (ant-fgl-1). The interaction between HSP90 and labeled GM forms the basis for the fluorescence polarization assay. A free and fast-tumbling FITC labeled GM emits random light with respect to the plane of polarization plane of excited light, resulting in a lower polarization degree (mP) value. When GM is bound to HSP90, the complex tumble slower and the emitted light is polarized, resulting in a higher mP value. This competition binding assay was performed in 96-well plate and with each assay contained 10 and 50 nM of labeled GM and purified HSP90 protein (Assay Design, SPP-776F) respectively. The assay buffer contained 20 mM HEPES (pH 7.3), 50 mM KCl, 1 mM DTT, 50 mM MgCl2, 20 mM Na2MoO4, 0.01% NP40 with 0.1 mg/ml bovine gamma-globulin. Compounds are diluted in DMSO and added to the final assay before labeled GM with concentration range from 20 uM to 2 nM. mP value was determined by BioTek Synergy II with background subtraction after 24 hours of incubation at 4° C.

Compound `CCNC(=O)c1noc(-c2cc(C(C)C)c(O)cc2O)c1-c1ccc(CNCCCCCCC(=O)NO)cc1` [Compound 23, 5-(2,4-dihydroxy-5-isopropylphenyl)-N-ethyl-4-(4-((7-(hydroxyamino)-7-oxoheptylamino)methyl)phenyl)isoxazole-3-carboxamide] showed a melting point of 126 to 128 °C. Besides, the IC50 in data set [1] was in the range of 100 to 1000 nM. The IC50 at HSP90 was not above 100 nM.

Compound `CCNC(=O)c1noc(-c2cc(C(C)C)c(O)cc2O)c1-c1ccc(CN(C)CCCCCCC(=O)NO)cc1` [Compound 24, 5-(2,4-Dihydroxy-5-isopropylphenyl)-N-ethyl-4-(4-(((7-(hydroxyamino)-7-oxoheptyl)(methyl)amino)methyl)phenyl)isoxazole-3-carboxamide] showed a melting point of 118 to 119 °C. In data set [1], this compound gave an IC50 of 100 to 1000 nM. The IC50 at HSP90 was not above 100 nM.

Compound `CC(C)c1cc(-c2onc(C(=O)NCCCCCC(=O)NO)c2-c2ccc(CN3CCOCC3)cc2)c(O)cc1O` [Compound 27, 5-(2,4-Dihydroxy-5-isopropylphenyl)-N-(6-(hydroxyamino)-6-oxohexyl)-4-(4-(morpholinomethyl)phenyl)isoxazole-3-carboxamide] gave a melting point of 164 to 166 °C. This compound had an IC50 in data set [1] of 100 to 1000 nM. For the same compound, on HSP90, the IC50 was not above 100 nM.

`CC(C)c1cc(-c2onc(C(=O)NCCCCCCC(=O)NO)c2-c2ccc(CN3CCOCC3)cc2)c(O)cc1O` [Compound 28, 5-(2,4-Dihydroxy-5-isopropylphenyl)-N-(7-(hydroxyamino)-7-oxoheptyl)-4-(4-(morpholinomethyl)phenyl)isoxazole-3-carboxamide] came in with a melting point of 109 to 111 °C. In data set [1], this compound showed an IC50 not above 100 nM. Further, the IC50 at HSP90 is not above 100 nM.

In the case of `CC(C)c1cc(-c2onc(C(=O)NCCCCCCCC(=O)NO)c2-c2ccc(CN3CCOCC3)cc2)c(O)cc1O` [Compound 29, 5-(2,4-Dihydroxy-5-isopropylphenyl)-N-(8-(hydroxyamino)-8-oxooctyl)-4-(4-(morpholinomethyl)phenyl)isoxazole-3-carboxamide], the melting point lay within 117 to 119 °C. In data set [1], the IC50 was 100 to 1000 nM. Further, the IC50 at HSP90 was not above 100 nM.

(Values after patent US20090076006A1, “HSP90 INHIBITORS CONTAINING A ZINC BINDING MOIETY” (priority 2007, published 2009).)
